In PubChem BioAssay (NCI):
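Values below derive from 48-hour exposures of cells grown in 96-well plates, with endpoints linearly interpolated between the two concentrations bracketing the appropriate inhibition level. GI50 marks 50% less growth. TGI is the concentration that stops growth completely.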

How the values were obtained:
Experiment in all cases: NCI tumour cell line growth inhibition, 48 h
[1] = test system: 786-0 renal
[2] = test system: A498 renal
[3] = test system: A549 NSCLC
[4] = test system: ACHN renal
[5] = test system: BT-549 breast
[6] = test system: CAKI-1 renal
[7] = test system: CCRF-CEM leukemia
[8] = test system: COLO 205 colon
[9] = test system: DU-145 prostate
[10] = test system: EKVX NSCLC
[11] = test system: HCC-2998 colon
[12] = test system: HCT-116 colon
[13] = test system: HCT-15 colon
[14] = test system: HL-60(TB) leukemia
[15] = test system: HOP-62 NSCLC
[16] = test system: HOP-92 NSCLC
[17] = test system: HS 578T breast
[18] = test system: HT29 colon
[19] = test system: IGROV1 ovarian
[20] = test system: K-562 leukemia
[21] = test system: KM12 colon
[22] = test system: LOX IMVI melanoma
[23] = test system: M14 melanoma
[24] = test system: MALME-3M melanoma
[25] = test system: MCF7 breast
[26] = test system: MDA-MB-231 breast
[27] = test system: MDA-MB-435
[28] = test system: MOLT-4 leukemia
[29] = test system: NCI-H226 lung

SMILES: N#Cc1cccc(Nc2ncc(-c3ccccc3)o2)c1
- GI50 [1]: 12.9 µM
- TGI [1]: > 25 µM
- GI50 [2]: > 22.2 µM
- TGI [2]: > 25 µM
- GI50 [3]: 11.7 µM
- TGI [3]: > 25 µM
- GI50 [4]: 8.4 µM
- TGI [4]: > 25 µM
- GI50 [5]: > 20.7 µM
- TGI [5]: > 25 µM
- GI50 [6]: 8.44 µM
- TGI [6]: > 25 µM
- GI50 [7]: 20.8 µM
- TGI [7]: > 25 µM
- GI50 [8]: 14.8 µM
- TGI [8]: > 25 µM
- GI50 [9]: 16 µM
- TGI [9]: > 25 µM
- GI50 [10]: 11 µM
- TGI [10]: > 25 µM
- GI50 [11]: > 23.7 µM
- TGI [11]: > 25 µM
- GI50 [12]: 9.02 µM
- TGI [12]: > 25 µM
- GI50 [13]: 16.8 µM
- TGI [13]: > 25 µM
- GI50 [14]: 11 µM
- TGI [14]: > 25 µM
- GI50 [15]: 6.69 µM
- TGI [15]: > 17.8 µM
- GI50 [16]: 7.32 µM
- TGI [16]: > 25 µM
- GI50 [17]: 8.52 µM
- TGI [17]: > 25 µM
- GI50 [18]: > 25 µM
- TGI [18]: > 25 µM
- GI50 [19]: 11.7 µM
- TGI [19]: > 25 µM
- GI50 [20]: > 25 µM
- TGI [20]: > 25 µM
- GI50 [21]: 8.18 µM
- TGI [21]: > 25 µM
- GI50 [22]: 9.47 µM
- TGI [22]: > 25 µM
- GI50 [23]: > 25 µM
- TGI [23]: > 25 µM
- GI50 [24]: > 25 µM
- TGI [24]: > 25 µM
- GI50 [25]: 8.25 µM
- TGI [25]: > 25 µM
- GI50 [26]: 8.38 µM
- TGI [26]: > 25 µM
- GI50 [27]: > 25 µM
- TGI [27]: > 25 µM
- GI50 [28]: > 25 µM
- TGI [28]: > 25 µM
- GI50 [29]: 8.65 µM
- TGI [29]: > 25 µM
